SMILES | melting point [°C]
CCC(CCCCCCCCC(C)(C)CO)N1C(=O)c2cccc([N+](=O)[O-])c2C1=O (centres undefined) | 66 to 68
Nc1cc(Cl)c(Cl)cc1I | 79.5 to 80.5
COc1ccc2c(n1)C1(CO2)C(=O)N(Cc2csc(C(C)C)n2)c2ccccc21 (centres undefined) | 136 to 138
CCCN(CCC)C1Cc2c(-c3ncco3)ccc3c2C(C1)CN3C(=O)c1ccccc1 (single isomer, unassigned; (-)) | 103 to 104
CN1CC(=O)Nc2ccc(C(F)(F)F)cc2C1=O | 203 to 206
CCCCCCCCC(CCCCCCCC)n1c2ccsc2c2sccc21 | 60
O=C(CCN1CCN(c2ncccn2)CC1)N1CC2CC3CC(C2)CC1C3 | 117 to 119
Cc1c(Oc2ncc(C(F)(F)F)cc2Cl)nn(C(=O)NC(C)C)c1C | 78 to 80
Clc1ccn2ncc(Br)c2n1 | 173 to 174
CCC(=CC(CNC(=O)c1ccncc1)=NO)C(C)[N+](=O)[O-] (centres undefined) | 145 to 148
C1=C(c2ccccc2)CCN(Cc2nc3ccccc3[nH]2)C1 | 253 to 255
O=[N+]([O-])c1cc(S(=O)(=O)N(CCO)CCO)sc1Cl | 100
CC(=O)OC(CN1C(=O)N(C(C)=O)C2(CC(C)(C)N(C(C)=O)C(C)(C)C2)C1=O)CN1C(=O)N(C(C)=O)C2(CC(C)(C)N(C(C)=O)C(C)(C)C2)C1=O | 286 to 288
COc1cc(C)c2[nH]ccc2c1C(C)(N)c1nc2cc(C#N)ccc2[nH]1 (single isomer, unassigned; (-)) | 201
O=C(O)c1nc(C2CC2)nc(NCc2ccco2)c1Cl | 150 to 152
CN(C)Cc1c[nH]c2ccc(Cl)cc12 | 127 to 130
CNc1cn(-c2cncc(F)c2)nc1C | 142 to 144
CCc1noc(C)c1-c1[nH]c2ccccc2c1CCCN(C)C | 131 to 133
CC1Oc2ccc(Br)c(C=NO)c2O1 (centres undefined) | 208 to 209
O=C(O)c1csc(Nc2ccc(Cl)c(C(F)(F)F)c2)n1 | 254 to 256
CCc1nc(/C=C\c2cn(-c3ccccc3)nc2OCc2ccc(OCc3nc(N4CCOCC4)sc3C)c(OC)c2)cs1 | 76 to 78
CCOC(=O)C(C=O)c1csc(NC=O)n1 (centres undefined) | 179 to 180
CC(C)(Oc1ccc2c(c1)CCc1c-2ccc2c1CCC2(C)C)C(=O)O | 167 to 170

SMILES | melting point [°C]
N#Cc1ccc(N2CCC(CO)CC2)cc1 | 148 to 150
Cc1cc(C#N)c(N)cc1Cl | 180
COc1nc(C)nc(NC(=O)NS(=O)(=O)c2cc(OC(F)F)ccc2OC(F)F)n1 | 113
CC(C)(CCC(=O)N[C@H](Cc1ccc(-c2ccccc2)cc1)C(=O)NCCCCNc1ncccn1)C(=O)O | 85 to 98
CC(C)c1cccc(C(C)C)c1NC(=O)NCCN1CCN(CCSc2nc3ccccc3o2)CC1 | 152 to 153
CCOC(=O)CNC(=O)N1CS(=O)c2c1cc(C(F)(F)F)cc2[N+](=O)[O-] (centres undefined) | 150
CC(C)(C)[Si](C)(C)N1C(=O)C(C(Cc2ccccc2)OC=O)C1SC(c1ccccc1)(c1ccccc1)c1ccccc1 (centres undefined) | 172 to 173
CC(C)(C)NS(=O)(=O)c1c(C(F)F)nsc1OCC(F)(F)F | 105 to 106
Cc1ncc(CSSCc2cnc(C)c(O)c2CN(C)C)c(CN(C)C)c1O | 195 to 201
CC1=NC(NC(=O)Nc2cccc(C)c2)C(=O)N(CC(=O)C(C)(C)C)c2c(C)cccc21 (centres undefined) | 180 to 181
O=C(CN1CCOCC1)N[C@@H](Cc1ccccc1)[C@@H](O)[C@H](O)[C@H](Cc1ccccc1)NC(=O)CN1CCOCC1 | 172 to 177
Cc1ccc(-c2ccc3c(c2)C=C(C(=O)NC2CCN(CC4=CCCCCCC4)CC2)CCO3)cc1 | 148 to 151
Nc1ncnc2c1c(CCCO)nn2Cc1oc2ccccc2c(=O)c1-c1ccccc1 | 182 to 184
Cc1cc(=O)n(-c2cc(N)c(Cl)cc2F)c(=O)n1C | > 220
CCCCCCCCCCCCCCOc1ccc(CC(=O)Cl)cc1 | 78 to 80
CCCON1C(C)(C)CC(NC(=O)C2=C(c3ccccc3)C(c3ccccc3)OC2=O)CC1(C)C (centres undefined) | 79 to 85
N#Cc1cc(C=O)cc(O)c1O | 210 to 215
CCN(CC)C(=O)c1ccnc(Br)c1 | 200 to 203
CC(C)(C)OC(=O)NC1CSCCNC1=O (centres undefined) | 200 to 201
CC1(C)Oc2cc3nonc3cc2[C@@H](NC(=O)Nc2ccccc2)[C@@H]1O (relative stereo) | 215 to 216
O=C(O)CN(CC(=O)O)c1cc(OCCCCCCCCCCCCOc2ccccc2)cc(OCCCCCCc2cccc(O)c2O)c1 | 129 to 131
CCCC[C@H](NC(=O)C(CSC(C)=O)C(F)(F)F)C(=O)O (some centres undefined) | 123 to 125
Cc1nc(-c2c(C#N)nn(-c3c(Cl)cc(C(F)(F)F)cc3Cl)c2N)cs1 | 226 to 228

Results, then the molecule that gave them:

melting point [°C] | SMILES
136 to 137 | Cc1cccc(C2=C(c3ccc(S(C)(=O)=O)cc3)CN(C3CC3)C2=O)c1
157 to 159 | CCOc1ccc(S(=O)(=O)c2ccc(C)nc2Nc2c(C)cc(C)cc2C)cc1
186 | CC(C)N1CCN(C(=O)COC2c3ccccc3C(=O)N2c2ccc3ccc(Cl)nc3n2)CC1 (centres undefined)
175 to 176 | CCN(CC)C(=O)NCCc1cccc(-c2nc(=O)c3ccccc3s2)n1
142 to 143 | CC(c1ccc(Br)cc1)N1CCC(NC(=O)CCc2nc(-c3ccccn3)no2)CC1 (centres undefined)
140 to 141 | CN1CCN(c2cccc3ccc(NCc4cccc5ccccc45)cc23)CC1
260 to 261 | COc1cc(C=CC(=O)Nc2cnc3c(C)cc(C)cc3c2-c2ccc(F)cc2)cc(OC)c1OC(C)=O
> 275 | O=S(=O)(O)c1ccc(NCc2ccc(Cl)cc2Cl)cc1
200 | O=[N+]([O-])c1ccc(S(=O)(=O)Nc2cccc3c(Cl)c[nH]c23)cc1
138 to 142 | CCOC(=O)C(=O)Nc1nc2c(OC)ccc(-c3ccccc3)c2s1
83 to 84 | COC(=O)COc1cccc2c(CNS(=O)(=O)CCOc3ccccc3)coc12
109 to 110 | COC(=O)c1ccc(-c2nc(-c3cc(C)sc3C)cs2)cc1
145 to 146 | Oc1c2c(nn1-c1ccccn1)CCc1ccccc1-2
152 to 155 | Cc1noc([C@@H](Cc2ccccc2)NC(=O)[C@@H](Cc2ccc3ccccc3c2)NC(=O)C2CCN(C(=O)OC(C)(C)C)CC2)n1
142 to 145 | O=c1oc(=O)n(Cc2ccc(F)cc2)c2ccccc12
227 to 228 | O=C(NC1CCOc2cc(C(=O)O)ccc21)OCc1ccccc1 (centres undefined)
151 | Cc1cc(C#Cc2cn(-c3ccc(F)cc3)c(C)n2)ccn1
96.5 to 98.9 | NCc1c(-c2ccc(O)cc2)nnn1-c1ccc(C(F)(F)F)cc1Cl
105 to 108 | CS(=O)c1ccc(OCc2ccccc2)c(CCCc2ccc(C(=O)NCCO)cc2)c1 (centres undefined)
97 to 98 | CS(=O)(=O)c1ccc(Oc2cc(OCc3ccccc3)c3[nH]c(C4=NCC(CCO)S4)cc3c2)cc1 (centres undefined)
140 to 142 | COc1ccc(-n2c3ccccc3c3cc(C(C#N)=C(C#N)c4cc(F)cc(F)c4)ccc32)cc1
178 to 180 | O=S(=O)(c1ccc(O)cc1)c1ccc2cc(Br)ccc2c1
168 to 188 | N#Cc1ccc(-c2cn(-c3ccc(C#N)cc3)c(Cc3ccccc3)n2)cc1
195 to 200 | CCCN(Cc1ccc(-c2ccccc2-c2nnn[nH]2)cc1)c1ccncc1C(=O)O

melting point [°C] | SMILES
253 to 256 | O=C(O)C(=O)Nc1ccc2c(=O)c3c(oc2c1)C(=Cc1ccccc1)CC3
128 to 130 | COc1cc2c(cc1OC)N(C(=O)OCc1ccccc1)C(C)CC2=O (centres undefined)
242 to 244 | Nc1ncccc1-c1nc2cc(Br)cnc2n1-c1ccc(NC(=O)c2ccccc2)cc1
316 to 317 | CNc1nc(N)nc2cc(-c3ccccc3S(=O)(=O)NC)ccc12
108 to 110 | CC(C)(O)COc1c(-c2ccc(S(C)(=O)=O)cc2)cnn(-c2ccc(Cl)c(Cl)c2)c1=O
105 to 106 | Nc1ccc(Cc2nc3ccccc3o2)cc1
190 to 191 | O=C(c1ccccc1)c1nsc2nc3ccccc3n12
180 | CC(C)CNc1nc(-c2ccccc2)c(Cl)n2c(-c3ccc(C(=O)NC4CC4)cc3)cnc12
69 to 70 | CCCCCNCc1ccc(-c2ccccc2S(=O)(=O)NC(C)(C)C)cc1
126 to 127 | COC(=O)[C@H](C)N(C(=O)[C@H](CC(C)C)NC(=O)OCc1ccccc1)c1ccc(-c2ccccc2)cc1
201 to 204 | Cc1c(C(=O)N2Cc3ccccc3Cc3ccccc32)csc1C(N)=O
243 to 245 | O=c1c2c(Cc3ccc(F)cc3)n[nH]c2c2cccnc2n1-c1cccc(C(F)(F)F)c1
83 to 85 | O=C(C=C1CCN(Cc2ccc(F)cc2)CC1)NCc1ccc(F)c(F)c1
104 to 106 | CC(Cc1ccc(Oc2cc(N3CCN(Cc4ccccc4)CC3)nc(NCc3ccccc3)n2)cc1)(Oc1ccccc1)C(=O)O (centres undefined)
118 to 119 | CN(CCO)Cc1cc(C(=O)c2ccccc2)cc(C(C)(C)C)c1O
227 to 228 | Cc1cc(NC(=O)NC2=C(c3ccccc3)c3ccccc3CS2)cc(C)c1O
238 to 239 | NC(=O)c1ccc(N2CCN(Cc3cn4cc(Br)ccc4n3)CC2)cc1
199 to 201 | O=C1CCC(O)=C1Cc1ccc(Br)cc1
169 to 171 | Cc1cccc(NC(=O)Nc2ccc(-c3c(C(C)C)sc4ncnc(N)c34)cc2)c1
207 to 209 | C=C(Cl)COc1ccc(Br)cc1CN(CC)c1ccc(C(=O)O)cn1
192 to 194 | COc1cc(-c2ccccc2F)c(Cl)cc1C(=O)N1Cc2cccn2Cc2ccccc21
172 to 174 | CC(C)(C)c1cc(C(=O)NCC(=O)O)ccc1OCc1ccccc1
300 | O=C(NCc1ccn(-c2cc3nc(C(=O)O)c(=O)[nH]c3cc2C(F)(F)F)c1)Nc1cccc(C(=O)O)c1
96 to 96.5 | CCOc1ccc(Oc2ccc(OCc3ccccc3)cc2)c([N+](=O)[O-])c1

Source: a melting point compilation (Tetko et al.; mined from patent text by program, amines drawn as free bases though some values may be those of a salt)
